One molecule from article PMC8380212, “^18F-labeled tracers targeting fibroblast activation protein” (EJNMMI Radiopharmacy and Chemistry, 2021) can be followed below.

One data set deals with T1, FAP (HT-1080-FAP cells) (Homo sapiens, UniProt Q12884).
T1 construct: expressed in transfected cells; host or cells: HT-1080 cells transfected with FAP (HT-1080-FAP)
T1 sequence (Q12884 1-760): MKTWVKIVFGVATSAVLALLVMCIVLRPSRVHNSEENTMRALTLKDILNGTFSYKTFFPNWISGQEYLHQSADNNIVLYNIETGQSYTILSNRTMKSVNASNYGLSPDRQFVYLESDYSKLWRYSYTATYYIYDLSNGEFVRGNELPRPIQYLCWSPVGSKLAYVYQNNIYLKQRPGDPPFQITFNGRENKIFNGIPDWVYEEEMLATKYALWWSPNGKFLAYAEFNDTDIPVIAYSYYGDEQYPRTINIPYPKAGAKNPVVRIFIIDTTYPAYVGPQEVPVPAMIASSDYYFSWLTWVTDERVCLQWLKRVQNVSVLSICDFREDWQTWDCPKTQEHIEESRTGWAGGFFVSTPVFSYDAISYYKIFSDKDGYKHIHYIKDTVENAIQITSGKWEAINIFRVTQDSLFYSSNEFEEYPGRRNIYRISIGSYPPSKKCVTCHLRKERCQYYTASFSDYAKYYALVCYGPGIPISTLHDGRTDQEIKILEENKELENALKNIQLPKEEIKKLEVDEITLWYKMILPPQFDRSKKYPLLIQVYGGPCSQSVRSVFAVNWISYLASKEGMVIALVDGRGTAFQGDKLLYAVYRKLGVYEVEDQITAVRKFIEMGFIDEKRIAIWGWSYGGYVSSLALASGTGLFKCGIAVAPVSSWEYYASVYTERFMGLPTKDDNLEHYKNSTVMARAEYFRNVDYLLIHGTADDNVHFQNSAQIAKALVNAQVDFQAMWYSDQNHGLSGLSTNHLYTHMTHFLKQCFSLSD
Briefly: Competition experiments with unlabeled precursor on HT-1080-FAP cells. In kind it is binding. To be noted: co-incubation with unlabeled precursor for 60 min. The protocol:
(§1) The binding properties of the FAPI derivatives were evaluated using the FAP‐transfected HT‐1080‐FAP and CD26 expressing HEK-CD26 cells. All cells were cultivated in Dulbecco's modified Eagle's medium (DMEM) containing 10% fetal calf serum (FCS) at 37 °C/5% carbon dioxide. Cells were seeded in 6-well plates and cultivated to a final confluence of approximately 80–90% (1.2 to 2.0 × 10^6 cells/well). After washing with FCS free medium, for each well ca. 3 kBq of the radiolabeled compound (10–20 GBq/µmol for [^18F]AlF-labeling) was added to the cells in FCS free medium. On completion of the individual incubation time, cells were washed with PBS and treated with 1.4 mL lysis buffer (0.3 m NaOH, 0.2% SDS) before being transferred to measuring tubes. Competition experiments were performed by co-incubation with the unlabeled precursor for 60 min. Radioactivity was determined in a Wizard Gamma Counter (Perkin Elmer), normalized to 10^6 cells and calculated as percentage of the applied dose (%AD). Each experiment was performed in triplicate.

Data set [1] deals with T2, CD26 expressing HEK-CD26 cells (Homo sapiens, UniProt P27487).
T2 construct: expressed in transfected cells; host or cells: HEK cells transfected with CD26/DPP4 (HEK-CD26)
In words: In vitro binding on HEK-CD26 cells (negative control). It counts as cell-based. As for the experimental part: as §1

In another data set the test system is HT-1080-FAP xenografts. In words: Organ distribution (biodistribution) study. It counts as in vivo, BALB/c nu/nu mice. The protocol:
Eight-week-old BALB/c nu/nu mice (Charles River) were subcutaneously inoculated with 5 × 10^6 HT-1080-FAP cells. The subcutaneous xenografts were grown at the flanks of the mice. Xenografts were grown to a tumor diameter of 10–15 mm. Mice were anesthetized using isoflurane inhalation. 5–10 MBq of the [^18F]AlF-labeled compounds/ the respective tracer (FAPI-42/52/74/75/76; approx. 0.5 nmol; Am approximately 10–20 GBq/µmol) were injected intravenously for PET imaging. In vivo competition (blocking) experiments with ^68 Ga-FAPI-74 (9 MBq; 18.2 GBq/µmol) were performed by adding 30 nmol of unlabeled FAPI-74 to the injection solution. Images were acquired using a small-animal PET scanner (Inveon, Siemens). Within the first 60 min p.i., a dynamic scan was performed in list mode, followed by a static scan from 120–140 min post injection. Images were reconstructed iteratively using the 3D-OSEM + MAP method (Siemens) and were converted to standardized uptake value (SUV). For the dynamic analysis, 28 frames were reconstructed. Quantification was based on ROI analysis and expressed as SUV.
To reduce radiation exposure, the organ distribution study was performed with 1 MBq per animal. […] The radioactivity was measured using a γ-counter (Packard Cobra II Autogamma, GMI Inc., USA) and expressed as percentage of injected dose per gram of tissue (%ID/g). […]

The next data set concerns wild type HT1080 cells. Briefly: In vitro binding on wild type HT1080 cells (negative control). It counts as cell-based. The protocol:
as §1
Table 1 summarizes the uptake and EC50 values of the discussed ^18F-labeled FAPI derivatives using the FAP-transfected cell line HT-1080-FAP. Additionally, the lead candidates FAPI-74 to -76 were tested on HEK-CD26 as well as -74 and -75 on wild type HT1080 cells as negative control. […] For FAPI-74, a plateau was already reached after approximately 10 min with 27.2 ± 0.88%AD/10^6cells. […] The EC50 values were all in the low to sub-nanomolar range. Only a neglectable fraction of FAPIs 74–76 were detected on HEK-CD26 cells (0.18–0.24%) as well as on wildtype HT1080 in case of -74 and 75 (< 0.1%).

Molecules are shown by their SMILES. pEC50: −log10 of the molar value.

T2 sequence (P27487 whole entry): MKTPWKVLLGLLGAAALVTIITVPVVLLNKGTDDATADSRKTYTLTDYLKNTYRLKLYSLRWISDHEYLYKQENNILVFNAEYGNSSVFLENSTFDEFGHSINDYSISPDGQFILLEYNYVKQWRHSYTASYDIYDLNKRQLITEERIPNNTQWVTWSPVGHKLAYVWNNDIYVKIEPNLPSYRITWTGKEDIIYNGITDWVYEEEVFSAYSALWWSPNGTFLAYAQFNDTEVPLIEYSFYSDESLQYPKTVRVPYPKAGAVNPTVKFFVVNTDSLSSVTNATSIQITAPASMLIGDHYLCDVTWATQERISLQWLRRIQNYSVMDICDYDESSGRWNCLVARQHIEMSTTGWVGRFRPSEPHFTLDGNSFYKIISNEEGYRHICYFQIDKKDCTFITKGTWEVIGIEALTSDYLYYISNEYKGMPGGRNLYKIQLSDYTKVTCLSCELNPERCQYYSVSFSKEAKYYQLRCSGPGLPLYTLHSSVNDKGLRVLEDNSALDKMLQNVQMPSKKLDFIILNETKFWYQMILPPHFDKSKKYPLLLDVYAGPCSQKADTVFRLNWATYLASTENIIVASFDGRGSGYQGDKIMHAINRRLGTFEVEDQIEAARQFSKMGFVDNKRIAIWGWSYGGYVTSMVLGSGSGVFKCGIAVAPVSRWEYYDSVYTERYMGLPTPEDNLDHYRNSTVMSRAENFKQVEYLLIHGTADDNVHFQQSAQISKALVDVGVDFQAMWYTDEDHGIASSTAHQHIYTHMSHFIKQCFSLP

As a reminder, the pEC50 is −log10 of the EC50, conventionally taken in molar units. Regarding `N#C[C@@H]1CCCN1C(=O)CNC(=O)c1ccnc2ccc(OCCCN3CCN(C(=O)CN4CCN(CC(=O)O)CCN(CC(=O)O)CC4)CC3)cc12` [FAPI-74], the negative logarithm of the EC50 (pEC50) on FAP (HT-1080-FAP cells) was 8.38. Also, the “uptake CD26” value in data set [1] was 0.18 ± 0.04 %AD/10^6 cells. Further, the tumor uptake with HT-1080-FAP xenografts (after 30 min, HT-1080-FAP bearing Balb/c nu/nu mice) amounted to 6.9 %ID/g. Besides, in the data set with HT-1080-FAP xenografts (early, discussion), the early tumor uptake entry is reported as “approximately 7 %ID/g”. The “uptake WT” value in the data set on wild type HT1080 cells (wild type HT1080 control cells) was found to be 0.07 ± 0.03 %AD/10^6 cells. In addition, in the data set with wild type HT1080 cells (wildtype HT1080, text), the “fraction detected on wildtype HT1080” value is on record as less than 0.1%.
